Entries after “also recorded” stand apart in the source; their conditions may differ.

For test [1], the target named is T1, EphA4 (HT-22 cells) (Mus musculus, UniProt Q03137).
T1 construct: HT-22 cells, a cell line that expresses EphA4; endogenous in cells; host or cells: HT-22 cells
The test is described as follows: Cell-based binding of biotinylated ephrin-A1 to the surface of HT-22 cells. The settings on record: 10 min pre-incubation; Rhy 300 μM, KYL 100 μM (FIG. 10); biotinylated ephrin-A1 0.5 μg/mL. The procedure: HT-22 cells were seeded on poly-D-lysine coverslips. […] The cells were then fixed with 4% paraformaldehyde and then immunostained with Alexa Fluor 488-conjugated Streptavidin antibody (Molecular Probes) for surfacing labeling of biotinylated ephrin-A1.

Test [2] concerns the target T2, EphA4 (Rattus norvegicus, UniProt D3ZZK3).
T2 construct: endogenous in cells; host or cells: primary rat cortical neurons (A5), primary rat hippocampal neurons (A7)
Put plainly: Ephrin-A1-induced EphA4 cluster assay in cultured hippocampal neurons. The format is cell-based. The conditions noted are these: cultured hippocampal neurons 3 DIV, different concentrations. As to the method:
For EphA4 clustering, neurons were stained with anti-EphA4 and anti-Tau-1 antibodies. For the growth cone collapse assay, neurons were stained with Alexa Fluor 555-conjugated phalloidin (Molecular Probes) for filamentous actin and anti-Tau-1 antibody for axons. Collapsed growth cones were scored in a double-blinded manner. The experiments were repeated at least 3 times, and >50 neurons were analyzed for each experiment. Data are presented as mean±SEM.
Rat hippocampal neurons were seeded on 48-well plates coated with poly-D-lysine (50 μg/mL) at 6000 cells per well. Neurons were incubated with Neurobasal medium (Invitrogen) supplemented with 2% B27 (Invitrogen). […] Neurons were then immunostained with anti-EphA4 and anti-Tau-1 antibodies. The cellular imaging and quantification of EphA4 clusters was performed using IN Cell Analyzer 6000 high content assay system (GE Healthcare). EphA4 clusters were quantified by calculating the proportion of total area of EphA4 clusters on axons against Tau positive area. Statistical analysis was performed with one-way ANOVA followed by Newman-Keuls Multiple Comparison Test (Prism 5 GraphPad Software).

For test [3], the system named is Aβ-induced impairment of hippocampal LTP. Put plainly: HFS-induced LTP (fEPSP slope) in acute hippocampal slices treated with Aβ. The format is cell-based, mouse. The procedure:
Oligomeric Aβ (Aβ) was prepared as described previously^59,60. Briefly, 0.5 mg monomeric Aβ1-42 was dissolved in 22.2 μL dry DMSO and then diluted in ice-cold phenol-red free F-12 medium to yield a final Aβ concentration of 100 μM. The Aβ solution was incubated at 4° C. for 24 h and then centrifuged at 14,000×g for 10 min. The supernatant was frozen in liquid nitrogen and stored at −20° C. for up to 1 month. Unless specified, cultured neurons or hippocampal slices were typically treated with Aβ at 500 nM.
For LTP recordings, mouse brains were immediately dissected after sacrifice and soaked in ice-cold 95% O2/5% CO2 (aCSF)^58. Brain slices (300 μm thick) were prepared using a vibrating tissue slicer (HM650V; Thermo), and soaked in oxygenated buffer for 2 h at 32° C. The hippocampal regions were resected and placed at the center of a MED-P210A probe (Panasonic International Inc) with 64 embedded recording electrodes. The slices were then perfused with Aβ at 500 nM in oxygenated aCSF for 2 h before LTP induction^70. For treatment with EphA4 inhibitors, the slices were pretreated with peptides or chemicals for 1 h before application of Aβ. fEPSPs were recorded using a MED64 multichannel recording system, and the data were collected from the dendritic layer of area CA1 at a sampling rate of 10 kHz. For each slice, the baseline stimulus intensity was set at the level that elicited ˜50% of the maximum fEPSP response determined according to the input-output curve. LTP was induced by 3 trains of HFS (100 Hz, 1 s, delivered 30 s apart). The magnitude of LTP was quantified as a percentage change in the fEPSP slope (10%-90%) taken during the 60-min interval after LTP induction.

Test [4] concerns glutamate-induced Ca2+ influx. The settings on record: subsequent study; cited from earlier work.

T2 sequence (D3ZZK3 20-986): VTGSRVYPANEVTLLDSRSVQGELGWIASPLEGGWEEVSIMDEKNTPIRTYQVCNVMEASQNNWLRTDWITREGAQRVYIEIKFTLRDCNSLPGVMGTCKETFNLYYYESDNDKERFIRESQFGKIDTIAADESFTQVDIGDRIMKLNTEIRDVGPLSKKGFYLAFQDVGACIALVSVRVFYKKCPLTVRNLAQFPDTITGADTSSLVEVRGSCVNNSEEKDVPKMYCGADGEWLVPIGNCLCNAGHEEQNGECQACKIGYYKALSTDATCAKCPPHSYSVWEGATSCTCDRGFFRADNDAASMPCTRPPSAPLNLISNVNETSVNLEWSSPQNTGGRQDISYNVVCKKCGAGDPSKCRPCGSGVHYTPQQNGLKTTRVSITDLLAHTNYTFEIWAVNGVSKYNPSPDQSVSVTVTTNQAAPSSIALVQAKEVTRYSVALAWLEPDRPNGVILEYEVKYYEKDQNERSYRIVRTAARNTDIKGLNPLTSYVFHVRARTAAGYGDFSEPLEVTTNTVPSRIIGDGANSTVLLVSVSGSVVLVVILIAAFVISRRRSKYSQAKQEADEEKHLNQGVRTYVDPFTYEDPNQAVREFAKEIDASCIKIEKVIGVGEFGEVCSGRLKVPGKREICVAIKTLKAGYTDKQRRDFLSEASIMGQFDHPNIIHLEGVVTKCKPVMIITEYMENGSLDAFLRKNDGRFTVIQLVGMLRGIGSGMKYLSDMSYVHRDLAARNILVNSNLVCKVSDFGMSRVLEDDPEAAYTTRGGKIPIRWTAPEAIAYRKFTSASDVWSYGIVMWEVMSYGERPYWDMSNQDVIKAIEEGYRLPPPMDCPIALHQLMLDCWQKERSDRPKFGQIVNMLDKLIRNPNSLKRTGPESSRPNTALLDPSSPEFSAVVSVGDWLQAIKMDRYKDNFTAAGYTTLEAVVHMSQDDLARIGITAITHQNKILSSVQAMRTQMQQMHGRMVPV
T1 sequence (Q03137 20-986): as the sequence (D3ZZK3 20-986) above, with T270S, Q559K, P874S counted along it

On to `CC[C@H]1CN2CC[C@]3(C(=O)Nc4ccccc43)[C@@H]2C[C@@H]1/C(=C\OC)C(=O)OC` [Rhy, methyl (7β,16E,20α)-16-(methoxymethylene)-2-oxocorynoxan-17-oate], for which the “binding of ephrin-A1 to HT-22 cells” value in test [1] was “reduced the binding of ephrin-A1 to HT-22 cells; also recorded: reduces the binding of ephrin-A1 to the surface of HT22 cells”. In addition, in test [2], the “ephrin-A1-induced EphA4 clustering” value is recorded as “reduced the ephrin-A1-induced EphA4 clustering; also recorded: abolished ephrin-A1-induced EphA4 clustering”. The “mean fEPSP slope, last 10 min after LTP induction” value in test [3] (Rhy 30 μM + Aβ, Aβ alone 131.1±3.9%) is reported as 174.1±9.8%; in test [3] (Rhy 30 μM alone, control 172.7±7.5%) it was 168.1±6.0%. The “inhibition of glutamate-induced Ca2+ influx” value in test [4] is reported as “nor inhibits the glutamate-induced Ca^2+ influx”.

(Values after patent US9629830B2, “EphA4 inhibitors as neuroprotective agents” (The Hong Kong University of Science and Technology, priority 2013, dated 2017).)
